Earlier results as cited in Sander's compilation of Henry's law constants (doi:10.1080/01483918608076621).

Assay: Henry solubility constant Hcp at 298.15 K (mol/(m3 Pa))
Conditions: reference: Janini and Quaddora (1986); cited value

Structure (SMILES)	Henry solubility constant Hcp
Cc1cccc(O)c1 [1-hydroxy-3-methylbenzene]	6.1
CC(=O)OC(C)C [2-propyl ethanoate]	0.029
CCCOC(C)=O [propyl ethanoate]	0.044
CC(C)=O [propanone]	0.03
CCC(=O)CC [3-pentanone]	0.2
Cc1ccccc1O [1-hydroxy-2-methylbenzene]	2.6
CCCC(C)=O [2-pentanone]	0.091
CCCCCC(C)=O [2-heptanone]	0.35
CCOC(C)=O [ethyl ethanoate]	0.047
Cc1ccc(O)cc1 [1-hydroxy-4-methylbenzene]	5.2
CCCC=O [butanal]	0.054
CCCCOC(C)=O [butyl ethanoate]	0.035
